Laboratory results from ChEMBL document CHEMBL6074679, “Diastereoselective synthesis and biological evaluation of new fluorine-containing α-aminophosphonates as anticancer agents and scaffold to human urokinase plasminogen activator inhibitors” (Eur J Med Chem, 2025).

Legend:
OVCAR-3 = assay: Cytotoxicity against human OVCAR-3 cells incubated for 48 hrs by MTT assay; assay type: functional, cell-based; conditions: OVCAR-3, 48 h
SK-OV-3 = assay: Cytotoxicity against human SK-OV-3 cells incubated for 48 hrs by MTT assay; assay type: functional, cell-based; conditions: SK-OV-3, 48 h
MDA-MB-231 = assay: Cytotoxicity against human MDA-MB-231 cells incubated for 48 hrs by MTT assay; assay type: functional, cell-based; conditions: MDA-MB-231, 48 h
U-251 = assay: Cytotoxicity against human U-251MG cells incubated for 48 hrs by MTT assay; assay type: functional, cell-based; conditions: U-251, 48 h
HepG2 = assay: Cytotoxicity against human HepG2 cells incubated for 48 hrs by MTT assay; assay type: functional, cell-based; conditions: HepG2, 48 h
HeLa = assay: Cytotoxicity against human HeLa cells incubated for 48 hrs by MTT assay; assay type: functional, cell-based
U-118-MG = assay: Cytotoxicity against human U-118 MG cells incubated for 48 hrs by MTT assay; assay type: functional, cell-based
[1] = Cytotoxicity against human MRC5 cells incubated for 48 hrs by MTT assay; assay type: toxicity, cell-based
Caco-2 = assay: Cytotoxicity against human Caco-2 cells incubated for 48 hrs by MTT assay; assay type: functional, cell-based; conditions: Caco-2, 48 h
A549 = assay: Cytotoxicity against human A549 cells incubated for 48 hrs by MTT assay; assay type: functional, cell-based; conditions: A549, 48 h
U-87 MG = assay: Cytotoxicity against human U-87 MG cells incubated for 48 hrs by MTT assay; assay type: functional, cell-based, U-87MG ATCC
[2] = target: Urokinase-type plasminogen activator (Homo sapiens, UniProt P00749); assay: Inhibition of human urokinase uPA using Z-Gly-Gly-Arg-AMC as substrate by fluorescence plate reader assay

Row | SMILES | IC50 (OVCAR-3) [µM] | IC50 (SK-OV-3) [µM] | IC50 (MDA-MB-231) [µM] | IC50 (U-251) [µM] | IC50 (HepG2) [µM] | IC50 (HeLa) [µM] | IC50 (U-118-MG) [µM] | IC50 at 48 h [1] [µM] | IC50 (Caco-2) [µM] | IC50 (A549) [µM] | IC50 (U-87 MG) [µM] | IC50 [2] [µM]
1 | COc1ccc([C@@H](C)NC(c2c(F)cc(F)cc2F)P(=O)(OC)OC)cc1 (some centres not stated) | 78.6 | 4.2 | 27 | 47.8 | 13.2 | 17.5 | 70 | 5.86 | 14.6 | 33.2 | 22.6 | –
2 | CCOP(=O)(OCC)C(N[C@@H](C)C(C)(C)C)c1c(F)cc(F)cc1F (some centres not stated) | 55.1 | 16.6 | 39.3 | 7.57 | 46.7 | 10.6 | 40.7 | 36.5 | 0.39 | 33.3 | 11.5 | 671
3 | COP(=O)(OC)C(N[C@@H](C)C(C)(C)C)c1c(F)cc(F)cc1F (some centres not stated) | 13.7 | 7.08 | 83 | 144 | 92.1 | 4.14 | 122 | 15 | 72.3 | 48.6 | 61.1 | 720
4 | COc1ccc([C@@H](C)NC(c2ccccc2F)P(=O)(OC)OC)cc1 (some centres not stated) | 15.7 | 338 | 167 | 8.7 | 72.6 | 5.18 | > 500 | 29.1 | 1.3 | 43.3 | 9.24 | 114
5 | COP(=O)(OC)C(N[C@H](C)c1ccccc1)c1c(F)c(F)c(F)c(F)c1F (some centres not stated) | 13 | 28.2 | 94.3 | 34.1 | 55.1 | 4.09 | 51.2 | 84.1 | 6.02 | 49.6 | 5.45 | –
6 | CCOP(=O)(OCC)C(N[C@H](C)c1ccccc1)c1ccc(F)cc1F (some centres not stated) | 5.56 | 3.24 | 11.6 | 5.59 | 117 | 4.11 | 34.6 | 16.6 | 2.24 | 35.4 | 7.68 | –
7 | COc1ccc([C@@H](C)NC(c2ccc(F)cc2F)P(=O)(OC)OC)cc1 (some centres not stated) | 100 | 3.71 | 11 | 19 | 58.5 | 2.54 | 183 | 10.6 | 28.5 | 53.1 | 9.92 | 147
8 | COc1ccc([C@@H](C)NC(c2c(F)c(F)c(F)c(F)c2F)P(=O)(OC)OC)cc1 (some centres not stated) | 13.7 | 4.36 | 79.2 | 53.1 | 35.5 | 52.4 | 31.4 | 2.17 | 6.93 | 75.1 | 45.1 | 357
9 | COP(=O)(OC)C(NC(C)C(C)(C)C)c1ccc(F)cc1 (racemic) | 104 | 8.75 | 230 | 16.5 | 5.57 | 6.28 | 45.8 | 90.7 | 16.1 | 7.95 | 39.8 | –
10 | COc1ccc([C@@H](C)NC(c2ccc(F)cc2F)P(=O)(OC(C)C)OC(C)C)cc1 (some centres not stated) | 3.57 | 9.35 | 80.9 | 3.51 | 46.2 | 5.07 | 67.6 | 1.82 | 0.72 | 2.87 | 3.72 | 620
11 | CCOP(=O)(OCC)C(N[C@@H](C)C(C)(C)C)c1ccc(F)cc1F (some centres not stated) | 48.3 | 110 | 5.58 | 48.6 | 18.4 | 4.46 | 35.5 | 107 | 27.4 | 18 | 10.5 | –
12 | CCOP(=O)(OCC)C(N[C@H](C)c1ccc(OC)cc1)c1ccc(F)cc1F (some centres not stated) | 0.64 | 1.63 | 156 | 53.2 | 7.79 | 32.4 | 43.6 | 4.71 | 47.4 | 21.6 | 59.2 | 280
13 | COP(=O)(OC)C(N[C@@H](C)C(C)(C)C)c1ccccc1F (some centres not stated) | 51.7 | 21.9 | 160 | 8.95 | 59.6 | 21.4 | 81.2 | 34.4 | 1.3 | 55.1 | 3.27 | –
14 | COP(=O)(OC)C(N[C@@H](C)C(C)(C)C)c1ccc(F)cc1 (some centres not stated) | 81.6 | 6.77 | 190 | 21 | 6.73 | 6.07 | 38.3 | 110 | 18.5 | 9.82 | 36.3 | 516
15 | CCOP(=O)(OCC)C(N[C@@H](C)C(C)(C)C)c1ccc(F)cc1 (some centres not stated) | 71.6 | 15.3 | 59.3 | 24.4 | 34.5 | 13 | 64.2 | 13.8 | 51.4 | 49.2 | 11 | –
16 | COP(=O)(OC)C(N[C@@H](C)C(C)(C)C)c1ccc(F)cc1F (some centres not stated) | 66.3 | 131 | 165 | 119 | 59.5 | 9.85 | 87.7 | 82.2 | 6.44 | 1.82 | 40.7 | –
17 | COP(=O)(OC)C(N[C@H](C)c1ccccc1)c1ccc(F)cc1F (some centres not stated) | 2.47 | 17.4 | 170 | 110 | 47.9 | 5.35 | 67.7 | 5.24 | 8.63 | 5.45 | 57 | –
18 | CC(C)OP(=O)(OC(C)C)C(N[C@@H](C)C(C)(C)C)c1ccc(F)cc1F (some centres not stated) | 194 | 8.63 | 9.89 | 3.97 | 23.6 | 5.37 | 150 | 47.8 | 10.5 | 72 | 7.78 | –
19 | CCOP(=O)(OCC)C(N[C@H](C)c1ccc(OC)cc1)c1c(F)c(F)c(F)c(F)c1F (some centres not stated) | > 500 | 5.37 | 19.1 | 78.9 | 45.3 | 3.92 | 14.4 | 27.2 | 1.74 | 44.6 | 9.34 | 416
20 | COc1ccc([C@@H](C)NC(c2ccc(F)cc2)P(=O)(OC(C)C)OC(C)C)cc1 (some centres not stated) | 44.3 | 8.41 | 33.8 | 27 | 7.74 | 3.18 | 18.2 | 5.9 | 6.47 | 37.7 | 21.7 | 493
21 | O=c1[nH]c(=O)n([C@H]2C[C@H](O)[C@@H](CO)O2)cc1F [FLOXURIDINE] | 24.5 | 12.8 | 5.65 | 17.8 | 37.9 | – | – | – | – | 22.8 | 18.5 | –
